Test results as given in ChEMBL document CHEMBL1773019, “Antifibrotic constituents of Alnus firma on hepatic stellate cells” (Bioorg Med Chem Lett, 2011).
pIC50: −log10 of the molar value. Activity calls are given as the source filed them. The rule behind the calls is not given here.

How the values were obtained:
[1] = Antifibrotic activity against rat HSC-T6 cells assessed as inhibition of proliferation after 48 hrs by BrdU incorporation assay; type: functional, cell-based; settings: HSC-T6, 48 h
[2] = system: HSC-T6; assay: Antiproliferative activity against rat HSC-T6 cells at 10 to 100 ug/ml after 24 to 48 hrs by BrdU incorporation assay; type: functional, cell-based
[3] = Induction of apoptosis in rat HSC-T6 cells assessed as increase in caspase-3/7 activity at 10 to 100 ug/ml after 24 to 48 hrs; type: functional
[4] = system: HSC-T6; assay: Induction of cell death in rat HSC-T6 cells assessed as decrease in cell viability at 100 uM by MTT assay; type: functional, cell-based; settings: TDE = time-dependent effect
[5] = Cytotoxicity against rat HSC-T6 cells assessed as decrease in LDH release; type: cell-based
[6] = system: HSC-T6; assay: Induction of cell death in rat HSC-T6 cells assessed as decrease in cell viability after 48 hrs by MTT assay; type: functional, cell-based
[7] = system: HSC-T6; assay: Decrease in collagen content in rat HSC-T6 cells at 10 to 100 uM after 48 hrs by sirius red-based colorimetric assay; type: functional, cell-based
[8] = Inhibition of rat HSC-T6 cell proliferation at 100 ug/ml after 48 hrs by BrdU incorporation assay; type: functional; settings: HSC-T6, 48 h

| Structure (SMILES) | pIC50 [1] | Activity [2] | Activity [3] | Activity [4] | Activity [5] | Activity [6] | Activity [7] | inhibition at 100 µg/mL [8] |
| --- | --- | --- | --- | --- | --- | --- | --- | --- |
| O=C(O[C@@H]1Cc2c(O)cc(O)cc2O[C@@H]1c1cc(O)c(O)c(O)c1)c1cc(O)c(O)c(O)c1 [EPIGALOCATECHIN GALLATE] | 5.00 | – | – | – | – | – | – | – |
| C=C(C)[C@@H]1CC[C@]2(CO)CC[C@]3(C)[C@H](CC[C@@H]4[C@@]5(C)C[C@@H](O)[C@H](OC(=O)/C=C/c6ccc(O)c(O)c6)C(C)(C)[C@@H]5CC[C@]43C)[C@@H]12 | 4.62 | Active | 150% | tde | Non-toxic | Dose-dependent effect | Dose-dependent effect | – |
| O=C(/C=C/CCc1ccc(O)c(O)c1)CCc1ccc(O)c(O)c1 [DEHYDROHIRSUTANONOL] | 4.85 | Active | 150% | tde | Non-toxic | Dose-dependent effect | Dose-dependent effect | – |
| OC[C@@]1(O)CO[C@@H](OC[C@H]2O[C@@H](O[C@H](CCCCc3ccc(O)cc3)CCc3ccc(O)cc3)[C@H](O)[C@@H](O)[C@@H]2O)[C@@H]1O | 4.41 | – | – | – | – | – | – | 22.7% |
